The results in this text go back to PubChem BioAssay AID651574 (The Scripps Research Institute Molecular Screening Center, 2012).

What is called pIC50 is the IC50 on a negative log10 scale, so that one unit is a factor of ten. One may read the IC50 as the concentration needed to halve the response being measured.

pIC50: −log10 of the molar value. The source made the active and inactive calls. How the calls were made is not given here.

The test system of this assay is Core protein (Hepatitis C virus). The assay is described as follows: HCV infectivity inhibition in infected cells, late-stage follow-up, counter-screen for HCV core dimerization inhibitor project, cell-based, fluorescence qPCR, two timepoints (AID 651574). The note with it: viral RNA qPCR.

On to `Cc1ccc(Cc2c(C)nc3nc(SCC(=O)NCCN4CCNCC4)nn3c2C)cc1`, for which the negative logarithm of the IC50 (pIC50) (timepoint 2) is 5.74.

Regarding `Cc1ccc(Cc2c(C)nc3nc(SCC(=O)NCCN4CCCCCC4)nn3c2C)cc1`, the pIC50 is 5.07 (timepoint 1) and 4.86 (timepoint 2).

As for `Cc1ccc(Cc2c(C)nc3nc(SCC(=O)NCCN4CCCN(S(C)(=O)=O)CC4)nn3c2C)cc1`, where the note is “timepoint 1”, the negative-log IC50 (pIC50) is 4.72. Besides, the IC50 (timepoint 2) is 24.3 µM (inactive).

As to `Cc1ccc(Cc2c(C)nc3nc(SCC(=O)NCCN4CCN(S(=O)(=O)c5ccccc5)CC4)nn3c2C)cc1`, the negative logarithm of the IC50 (pIC50) is, setting by setting: (timepoint 1) 5.28; (timepoint 2) 4.90.

As to `Cc1ccc(Cc2c(CCc3ccccc3)nc3nc(SC(Cc4ccccc4)C(=O)NCCN4CCOCC4)nn3c2C)cc1` (configuration not stated), under “timepoint 1”, the negative logarithm of the IC50 (pIC50) was 5.11.

Turning to `Cc1ccc(Cc2c(C)nc3nc(SCC(=O)NCCN4CCOCC4)nn3c2C)cc1`, the negative-log IC50 (pIC50) (timepoint 1) was 4.92.

For the compound `Cc1ccc(Cc2c(C)nc3nc(SCC(=O)NCCN4CCN(Cc5ccc(F)cc5)CC4)nn3c2C)cc1`, the negative logarithm of the IC50 (pIC50) (timepoint 1) was 7.00.

Consider `Cc1ccc(Cc2c(C)nc3nc(SCC(=O)NCCCN4CCCCCC4)nn3c2C)cc1`, for which the negative logarithm of the IC50 (pIC50) by setting is: (timepoint 1) 5.17; (timepoint 2) 4.92.

Turning to `Cc1ccc(Cc2c(C)nc3nc(SCC(=O)NCCN4CCN(CCc5ccccc5)CC4)nn3c2C)cc1`, the negative logarithm of the IC50 (pIC50) (timepoint 1) was 5.51.

For the compound `Cc1ccc(Cc2c(C)nc3nc(SCC(=O)NCCN4CCCN(S(=O)(=O)c5ccc(C)cc5)CC4)nn3c2C)cc1`, the pIC50 reads like this: (timepoint 1) 5.57; (timepoint 2) 5.14.

In the case of `Cc1ccc(Cc2c(C)nc3nc(SCC(=O)NCCN4CCCN(S(=O)(=O)c5ccccc5)CC4)nn3c2C)cc1`, the pIC50 runs as follows: (timepoint 1) 5.49; (timepoint 2) 5.66.
